Our source for the Activity values is ChEMBL document CHEMBL1137160, “Structure-activity relationships of methylene or terminal side chain modified retinoids on the differentiation and cell death signaling in NB4 promyelocytic leukemia cells” (2004).

Test [1] deals with NB-4. In words: Ability to induce maturation and cell death of NB4 cells labelled with V-FITC on day 3. Also on record: concentration or dose not given beside the values. It is filed as functional, Homo sapiens.
Test [2] concerns NB-4. In words: Evaluated for mean value of the fluorescence intensity of CD11c-PE expressing NB4 cells at day 3. Type of test: functional, Homo sapiens.
Test [3] relates to NB-4. In words: Ability to induce maturation and cell death of NB4 cells labelled with V-FITC on day 6. Type of test: functional, Homo sapiens. Also on record: concentration or dose not given beside the values.
Test [4] relates to NB-4. In words: Evaluated for mean value of the fluorescence intensity of CD11c-PE expressing NB4 cells at day 6. It is filed as functional, Homo sapiens.
For test [5], the target named is T1, Retinoic acid receptor RXR-beta (Homo sapiens) (UniProt P28702).
T1 sequence (whole entry): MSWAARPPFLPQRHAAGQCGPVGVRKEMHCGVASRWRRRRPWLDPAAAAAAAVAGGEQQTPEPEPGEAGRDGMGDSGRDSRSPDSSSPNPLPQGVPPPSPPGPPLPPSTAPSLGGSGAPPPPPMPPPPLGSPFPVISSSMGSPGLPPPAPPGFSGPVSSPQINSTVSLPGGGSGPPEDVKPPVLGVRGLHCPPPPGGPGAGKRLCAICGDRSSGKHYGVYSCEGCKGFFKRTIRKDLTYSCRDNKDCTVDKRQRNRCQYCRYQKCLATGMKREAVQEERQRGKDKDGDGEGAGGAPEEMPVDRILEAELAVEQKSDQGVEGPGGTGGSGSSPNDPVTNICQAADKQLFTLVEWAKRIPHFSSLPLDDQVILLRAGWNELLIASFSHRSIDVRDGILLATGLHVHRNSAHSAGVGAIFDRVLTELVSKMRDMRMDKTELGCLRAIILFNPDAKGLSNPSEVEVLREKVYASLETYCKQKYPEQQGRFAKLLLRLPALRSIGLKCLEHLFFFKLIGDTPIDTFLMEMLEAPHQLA
In words: Agonist activity for Retinoid X receptor beta as photons in presence and absence of ligand. It is filed as functional. More on the design: unit not given here.

Test [6] concerns the target T2, Retinoic acid receptor beta (Homo sapiens) (UniProt P10826).
T2 sequence (whole entry): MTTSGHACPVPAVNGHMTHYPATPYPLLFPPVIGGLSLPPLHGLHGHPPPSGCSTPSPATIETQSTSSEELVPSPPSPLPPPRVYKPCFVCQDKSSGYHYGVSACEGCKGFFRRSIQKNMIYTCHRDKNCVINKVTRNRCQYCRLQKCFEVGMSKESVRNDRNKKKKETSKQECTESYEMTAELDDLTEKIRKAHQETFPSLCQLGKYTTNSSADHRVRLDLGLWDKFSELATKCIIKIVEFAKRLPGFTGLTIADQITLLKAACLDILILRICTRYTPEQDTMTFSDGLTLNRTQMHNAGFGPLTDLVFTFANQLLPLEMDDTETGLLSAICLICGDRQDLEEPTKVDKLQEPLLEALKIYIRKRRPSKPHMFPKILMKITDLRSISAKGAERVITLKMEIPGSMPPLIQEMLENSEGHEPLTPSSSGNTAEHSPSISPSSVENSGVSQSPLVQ
In words: Agonist activity for Retinoic acid receptor beta as photons in presence and absence of ligand. Type of test: functional. More on the design: unit not given here.

Test [7] concerns the target T3, Retinoic acid receptor alpha (Homo sapiens) (UniProt P10276).
T3 sequence (whole entry): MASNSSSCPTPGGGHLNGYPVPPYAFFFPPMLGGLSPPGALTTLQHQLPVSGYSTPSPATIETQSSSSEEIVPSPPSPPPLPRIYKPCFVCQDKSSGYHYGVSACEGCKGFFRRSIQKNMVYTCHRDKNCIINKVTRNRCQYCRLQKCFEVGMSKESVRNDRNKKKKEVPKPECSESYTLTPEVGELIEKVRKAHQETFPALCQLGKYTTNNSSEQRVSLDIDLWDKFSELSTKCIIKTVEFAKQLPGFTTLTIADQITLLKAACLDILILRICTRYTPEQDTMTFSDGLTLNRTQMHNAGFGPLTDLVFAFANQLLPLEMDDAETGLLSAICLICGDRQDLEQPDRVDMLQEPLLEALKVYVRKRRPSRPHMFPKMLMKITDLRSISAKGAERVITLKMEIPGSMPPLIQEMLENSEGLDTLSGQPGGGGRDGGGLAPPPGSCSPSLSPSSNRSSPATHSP
In words: Agonist activity for Retinoic acid receptor alpha as photons in presence and absence of ligand. Type of test: functional. More on the design: unit not given here.

For test [8], the target named is T4, Retinoic acid receptor gamma (Homo sapiens) (UniProt P13631).
T4 sequence (whole entry): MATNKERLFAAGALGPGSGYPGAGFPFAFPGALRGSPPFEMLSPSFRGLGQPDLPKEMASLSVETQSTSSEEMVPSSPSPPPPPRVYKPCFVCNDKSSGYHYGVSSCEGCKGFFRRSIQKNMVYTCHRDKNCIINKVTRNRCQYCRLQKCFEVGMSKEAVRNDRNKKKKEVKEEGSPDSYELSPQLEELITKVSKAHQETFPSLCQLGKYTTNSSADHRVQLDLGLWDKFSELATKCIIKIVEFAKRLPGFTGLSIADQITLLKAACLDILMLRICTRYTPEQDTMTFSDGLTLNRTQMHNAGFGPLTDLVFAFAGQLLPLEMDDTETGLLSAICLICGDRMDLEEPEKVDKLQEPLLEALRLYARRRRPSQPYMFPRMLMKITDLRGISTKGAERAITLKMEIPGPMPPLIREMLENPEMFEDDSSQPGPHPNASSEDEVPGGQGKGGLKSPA
In words: Agonist activity for Retinoic acid receptor gamma as photons in presence and absence of ligand. Type of test: functional. Also on record: concentration or dose not given beside the values.

Take `CC1(C)CCC(C)(C)c2cc(C3(c4ccc(C(=O)O)cc4)OCCO3)ccc21`: the Activity with NB-4 [1] is 11%; with NB-4 [2], 22; with NB-4 [3], 11%; in the test on NB-4 [4], 23.
As to `CC1=C(/C=C/C(C)=C/C=C(C#N)/C(C)=C\C(=O)O)C(C)(C)CCC1`, the Activity was determined as 9% with NB-4 [1]; 2.1 in test [5]; 88 in the test on NB-4 [2]; 14.6 in test [6]; 23.5 in test [7]; 8.9 in test [8]. The Activity stood at 20% with NB-4 [3] and 126 with NB-4 [4].
Regarding `C/C(=C\c1ccc(C(=O)O)cc1)c1ccc2c(c1)C(C)(C)CCC2(C)C`, the Activity was found to be 14% with NB-4 [1], 106 in the test on NB-4 [2], 35% with NB-4 [3] and 170 with NB-4 [4].
For `C=C(/C=C/C1=C(C)CCCC1(C)C)C/C=C/C=C\C(=O)O`, the Activity is 10% with NB-4 [1]; 2 in test [5]; 33 in the test on NB-4 [2]; 13.1 in test [6]; 7.1 in test [7]; 7.9 in test [8]. For the same compound, the Activity in the test on NB-4 [3] is 12%; in the test on NB-4 [4] it was 35.
`C=C(/C=C/C1=C(C)CCCC1(C)C)C/C=C/C(C)=C/C(=O)O`: the Activity is 18% in the test on NB-4 [1]; 5.8 in test [5]; 117 in the test on NB-4 [2]; 7.2 in test [6]; 7 in test [7]; 3.3 in test [8]. For the same compound, the Activity with NB-4 [3] amounted to 56%; with NB-4 [4], 163.
For the compound `CC1=C(/C=C/C(C)=C/C=C/C(C)=C/C(=O)O)C(C)(C)CCC1` [TRETINOIN], the Activity was 14% in the test on NB-4 [1], 110 in the test on NB-4 [2], 50% in the test on NB-4 [3] and 197 in the test with NB-4 [4].
As to `C=C(/C=C/C1=C(C)CCCC1(C)C)C/C=C/C(C)=C\C(=O)O`, the Activity in the test with NB-4 [1] came out at 11%; in test [5], 2.1; with NB-4 [2], 38; in test [6], 14.5; in test [7], 11.8; in test [8], 10.9. The figures for the Activity in the test with NB-4 [3] and in the test with NB-4 [4] were 14% and 43, respectively.
As for `CC1=C(/C=C/C(C)=C/C=C(\C#N)C(C)=C(C(=O)O)C(=O)O)C(C)(C)CCC1`, the Activity with NB-4 [1] worked out at 11%; in test [5], 3; with NB-4 [2], 77; in test [6], 17.9; in test [7], 22.2; in test [8] it was 11.7. Also, the Activity turned out to be 12% in the test with NB-4 [3] and 64 in the test on NB-4 [4].
In test [5], `CC1=C(/C=C/C(C)=C\C=C\C(C)=C\C(=O)O)C(C)(C)CCC1` showed an Activity of 14.5.
`COC(=O)\C=C(C)/C(C#N)=C/C=C(C)/C=C/C1=C(C)CCCC1(C)C`: the Activity in the test with NB-4 [1] turned out to be 13%; in test [5], 1.6; in the test on NB-4 [2], 10; in test [6], 6.7; in test [7], 1.3; in test [8], 3. Moreover, the Activity in the test on NB-4 [3] turned out to be 8%; with NB-4 [4] it was 10.
As to `C=C(/C=C/c1ccccc1)C/C=C/C(C)=C\C(=O)O`, the Activity in the test with NB-4 [1] amounted to 9%; in test [5] it was 13.5; in the test with NB-4 [2], 15; in test [6] it was 4; in test [7], 4.9; in test [8], 4.6. Besides, the Activity in the test with NB-4 [3] is reported as 8%; with NB-4 [4], 12.
